How the values were obtained:
Assay in all cases: KINOMEscan competition binding
Conditions in all cases: compound 10.0 µM
[1] = target: TGFBR2 (human) (UniProt P37173)
[2] = target: MAP4K2 (human) (UniProt Q12851)
[3] = tested on: RET (human), P07949 [V804L]
[4] = target: CAMK1G (human) (UniProt Q96NX5)
[5] = target: CSNK1G2 (human) (UniProt P78368)
[6] = target: MAPK1 (human) (UniProt P28482)
[7] = target: MAPK10 (human) (UniProt P53779)
[8] = target: MAP4K4 (human) (UniProt O95819)
[9] = target: MAP3K4 (human) (UniProt Q9Y6R4)
MAP3K4 (human), sequence (Q9Y6R4 whole entry, looked up): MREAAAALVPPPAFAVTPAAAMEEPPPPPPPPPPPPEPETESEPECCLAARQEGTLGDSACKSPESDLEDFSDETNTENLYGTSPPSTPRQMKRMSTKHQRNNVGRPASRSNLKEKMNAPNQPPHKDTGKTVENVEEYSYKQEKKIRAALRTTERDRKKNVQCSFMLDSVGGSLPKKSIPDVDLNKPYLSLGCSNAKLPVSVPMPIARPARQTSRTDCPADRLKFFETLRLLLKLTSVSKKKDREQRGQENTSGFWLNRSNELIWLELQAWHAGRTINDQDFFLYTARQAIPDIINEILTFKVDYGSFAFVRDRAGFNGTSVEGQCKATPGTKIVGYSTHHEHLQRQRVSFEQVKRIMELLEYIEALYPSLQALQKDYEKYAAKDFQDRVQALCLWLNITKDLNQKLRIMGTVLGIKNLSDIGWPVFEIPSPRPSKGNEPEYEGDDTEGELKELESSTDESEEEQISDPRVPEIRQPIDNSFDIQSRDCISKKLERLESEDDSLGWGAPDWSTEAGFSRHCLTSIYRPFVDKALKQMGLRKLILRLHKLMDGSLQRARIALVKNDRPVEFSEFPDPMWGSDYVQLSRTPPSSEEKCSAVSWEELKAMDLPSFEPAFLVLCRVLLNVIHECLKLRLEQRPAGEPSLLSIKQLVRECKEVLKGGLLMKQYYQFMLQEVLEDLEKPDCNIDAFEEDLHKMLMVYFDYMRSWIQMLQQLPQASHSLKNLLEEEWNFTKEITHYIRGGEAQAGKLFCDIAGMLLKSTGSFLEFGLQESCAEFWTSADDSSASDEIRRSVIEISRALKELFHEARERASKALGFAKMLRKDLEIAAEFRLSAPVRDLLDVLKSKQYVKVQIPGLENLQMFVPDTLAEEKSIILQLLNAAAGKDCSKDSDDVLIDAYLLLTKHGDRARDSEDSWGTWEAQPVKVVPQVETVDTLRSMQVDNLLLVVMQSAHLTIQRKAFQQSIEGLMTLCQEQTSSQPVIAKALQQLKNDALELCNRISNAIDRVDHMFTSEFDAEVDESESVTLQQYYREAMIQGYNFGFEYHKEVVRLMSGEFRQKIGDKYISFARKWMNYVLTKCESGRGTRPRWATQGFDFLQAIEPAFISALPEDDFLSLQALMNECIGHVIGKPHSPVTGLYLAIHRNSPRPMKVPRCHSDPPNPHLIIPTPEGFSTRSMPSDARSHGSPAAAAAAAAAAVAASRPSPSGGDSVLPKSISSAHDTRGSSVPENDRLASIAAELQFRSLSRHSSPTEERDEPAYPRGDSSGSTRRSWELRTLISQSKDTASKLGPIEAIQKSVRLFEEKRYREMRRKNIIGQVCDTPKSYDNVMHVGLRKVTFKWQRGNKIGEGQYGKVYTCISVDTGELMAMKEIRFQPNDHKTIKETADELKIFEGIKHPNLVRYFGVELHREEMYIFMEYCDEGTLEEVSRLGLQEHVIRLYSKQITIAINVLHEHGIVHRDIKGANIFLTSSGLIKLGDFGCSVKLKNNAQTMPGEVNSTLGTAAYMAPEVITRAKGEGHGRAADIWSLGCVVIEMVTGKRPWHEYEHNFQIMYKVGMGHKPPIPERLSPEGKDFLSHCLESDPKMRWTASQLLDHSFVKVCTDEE

[10] = target: MKNK1 (human) (UniProt Q9BUB5)
[11] = target: TEC (human) (UniProt P42680)
[12] = target: DDR1 (human) (UniProt Q08345)
[13] = target: PRKD3 (human) (UniProt O94806)
[14] = target: PLK1 (human) (UniProt P53350)
[15] = target: TEK (human) (UniProt Q02763)
[16] = target: IGF1R (human) (UniProt P08069)
IGF1R (human), sequence (P08069 whole entry, looked up): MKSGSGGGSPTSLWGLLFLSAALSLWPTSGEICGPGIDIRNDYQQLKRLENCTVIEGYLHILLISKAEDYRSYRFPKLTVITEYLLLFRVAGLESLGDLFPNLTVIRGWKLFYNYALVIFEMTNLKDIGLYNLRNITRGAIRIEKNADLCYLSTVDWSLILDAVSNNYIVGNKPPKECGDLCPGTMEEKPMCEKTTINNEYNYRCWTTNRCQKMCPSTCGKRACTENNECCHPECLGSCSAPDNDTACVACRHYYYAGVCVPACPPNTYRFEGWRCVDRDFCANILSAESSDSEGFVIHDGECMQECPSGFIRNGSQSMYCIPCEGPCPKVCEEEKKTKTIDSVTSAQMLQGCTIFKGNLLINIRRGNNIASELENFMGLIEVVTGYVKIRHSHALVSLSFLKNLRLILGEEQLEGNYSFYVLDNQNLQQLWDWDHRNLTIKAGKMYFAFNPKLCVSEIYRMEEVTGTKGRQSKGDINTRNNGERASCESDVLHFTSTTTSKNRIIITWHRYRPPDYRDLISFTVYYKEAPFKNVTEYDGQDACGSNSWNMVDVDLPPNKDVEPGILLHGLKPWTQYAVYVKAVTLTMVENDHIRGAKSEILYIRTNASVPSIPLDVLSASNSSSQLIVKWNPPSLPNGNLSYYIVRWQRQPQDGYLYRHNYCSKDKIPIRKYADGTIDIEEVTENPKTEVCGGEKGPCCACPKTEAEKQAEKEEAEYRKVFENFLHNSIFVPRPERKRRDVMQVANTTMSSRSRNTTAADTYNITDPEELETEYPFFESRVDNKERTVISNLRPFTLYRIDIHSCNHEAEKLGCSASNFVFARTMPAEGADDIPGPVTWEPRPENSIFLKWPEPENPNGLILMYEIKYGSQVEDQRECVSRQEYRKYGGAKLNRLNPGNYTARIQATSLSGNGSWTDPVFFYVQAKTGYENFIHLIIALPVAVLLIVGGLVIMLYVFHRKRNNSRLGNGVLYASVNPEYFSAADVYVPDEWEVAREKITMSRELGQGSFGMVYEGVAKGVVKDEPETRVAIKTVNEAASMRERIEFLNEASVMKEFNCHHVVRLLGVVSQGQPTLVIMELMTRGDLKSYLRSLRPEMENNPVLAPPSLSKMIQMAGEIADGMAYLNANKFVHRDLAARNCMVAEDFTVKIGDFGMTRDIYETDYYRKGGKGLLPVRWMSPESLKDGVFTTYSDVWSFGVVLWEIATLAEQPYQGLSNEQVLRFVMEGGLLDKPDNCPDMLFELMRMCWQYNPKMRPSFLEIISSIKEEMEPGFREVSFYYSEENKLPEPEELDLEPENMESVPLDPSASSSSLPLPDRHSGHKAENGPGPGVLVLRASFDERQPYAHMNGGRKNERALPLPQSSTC

[17] = target: MAPK12 (human) (UniProt P53778)
[18] = target: MAPK3 (human) (UniProt P27361)
MAPK3 (human), sequence (P27361 whole entry, looked up): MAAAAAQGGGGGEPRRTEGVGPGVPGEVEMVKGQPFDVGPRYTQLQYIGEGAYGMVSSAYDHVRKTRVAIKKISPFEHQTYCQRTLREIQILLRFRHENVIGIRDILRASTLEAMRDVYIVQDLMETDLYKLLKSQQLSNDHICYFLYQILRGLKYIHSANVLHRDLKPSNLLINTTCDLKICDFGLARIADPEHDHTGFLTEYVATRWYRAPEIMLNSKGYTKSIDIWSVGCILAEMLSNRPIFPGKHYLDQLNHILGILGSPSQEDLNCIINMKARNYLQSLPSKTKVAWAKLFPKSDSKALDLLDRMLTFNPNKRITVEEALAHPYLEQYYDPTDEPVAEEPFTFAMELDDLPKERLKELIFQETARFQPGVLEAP

[19] = target: LCK (human) (UniProt P06239)
[20] = target: BRSK2 (human) (UniProt Q8IWQ3)
[21] = target: CLK2 (human) (UniProt P49760)
[22] = target: BMPR1B (human) (UniProt O00238)
[23] = target: CHEK2 (human) (UniProt O96017)
[24] = target: CDKL5 (human) (UniProt O76039)
CDKL5 (human), sequence (O76039 whole entry, looked up): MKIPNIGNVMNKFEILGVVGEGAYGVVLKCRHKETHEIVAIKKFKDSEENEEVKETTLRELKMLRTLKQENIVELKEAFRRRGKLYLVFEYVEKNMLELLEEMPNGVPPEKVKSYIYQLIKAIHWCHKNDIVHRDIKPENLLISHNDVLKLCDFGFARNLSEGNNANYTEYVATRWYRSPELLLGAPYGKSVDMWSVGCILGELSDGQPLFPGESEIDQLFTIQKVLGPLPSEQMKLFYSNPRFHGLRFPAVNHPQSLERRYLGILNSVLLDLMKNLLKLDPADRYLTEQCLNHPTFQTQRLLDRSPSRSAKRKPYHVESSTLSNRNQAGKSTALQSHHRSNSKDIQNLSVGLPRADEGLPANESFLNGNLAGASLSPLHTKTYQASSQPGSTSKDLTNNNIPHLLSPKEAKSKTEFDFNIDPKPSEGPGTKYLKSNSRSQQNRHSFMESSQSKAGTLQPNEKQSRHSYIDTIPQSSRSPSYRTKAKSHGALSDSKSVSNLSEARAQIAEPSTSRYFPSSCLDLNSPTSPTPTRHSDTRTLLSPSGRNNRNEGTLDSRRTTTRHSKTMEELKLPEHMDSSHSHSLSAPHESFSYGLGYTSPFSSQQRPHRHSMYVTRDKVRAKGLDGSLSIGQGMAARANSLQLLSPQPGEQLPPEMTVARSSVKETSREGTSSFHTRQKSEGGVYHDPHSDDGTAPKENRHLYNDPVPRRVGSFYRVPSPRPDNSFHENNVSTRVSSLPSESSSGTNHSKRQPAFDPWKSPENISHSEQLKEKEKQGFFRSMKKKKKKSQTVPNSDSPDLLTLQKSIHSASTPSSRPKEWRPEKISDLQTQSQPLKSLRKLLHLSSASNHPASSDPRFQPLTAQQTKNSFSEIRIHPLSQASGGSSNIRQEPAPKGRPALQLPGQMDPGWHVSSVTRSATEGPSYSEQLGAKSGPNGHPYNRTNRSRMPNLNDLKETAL

[25] = target: INSRR (human) (UniProt P14616)
[26] = target: STK38L (human) (UniProt Q9Y2H1)
[27] = target: CDK16 (human) (UniProt Q00536)
[28] = target: TAOK3 (human) (UniProt Q9H2K8)
[29] = target: MAPK6 (human) (UniProt Q16659)
[30] = target: STK35 (human) (UniProt Q8TDR2)
[31] = target: HCK (human) (UniProt P08631)
[32] = target: CDC42BPA (human) (UniProt Q5VT25)
[33] = target: RPS6KA4 KD2 (human) (UniProt O75676)
[34] = target: PDGFRA (human) (UniProt P16234)
[35] = target: CAMK2G (human) (UniProt Q13555)
[36] = target: MYO3B (human) (UniProt Q8WXR4)
[37] = target: STK39 (human) (UniProt Q9UEW8)
[38] = tested on: CPK1 (P.falciparum)
[39] = target: PRKCI (human) (UniProt P41743)
[40] = target: CDKL1 (human) (UniProt Q00532)

TGFBR2 (human), sequence (P37173 whole entry, looked up): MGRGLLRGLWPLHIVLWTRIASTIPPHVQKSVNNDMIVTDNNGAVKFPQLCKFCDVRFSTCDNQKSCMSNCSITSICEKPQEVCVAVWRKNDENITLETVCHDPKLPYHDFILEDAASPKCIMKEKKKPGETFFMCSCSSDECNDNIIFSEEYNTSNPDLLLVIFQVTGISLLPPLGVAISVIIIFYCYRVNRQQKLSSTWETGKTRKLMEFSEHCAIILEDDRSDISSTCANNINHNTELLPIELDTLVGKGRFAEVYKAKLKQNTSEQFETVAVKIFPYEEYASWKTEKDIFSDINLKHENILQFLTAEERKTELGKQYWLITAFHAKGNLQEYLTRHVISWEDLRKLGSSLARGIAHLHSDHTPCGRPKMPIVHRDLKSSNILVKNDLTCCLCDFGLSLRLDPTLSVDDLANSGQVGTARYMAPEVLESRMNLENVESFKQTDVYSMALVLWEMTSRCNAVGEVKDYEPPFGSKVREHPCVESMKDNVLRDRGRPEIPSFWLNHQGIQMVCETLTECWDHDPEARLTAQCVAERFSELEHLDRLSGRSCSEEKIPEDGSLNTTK

Row | SMILES | kinase still bound, per cent of control [1] | kinase still bound, per cent of control [2] | kinase still bound, per cent of control [3] | kinase still bound, per cent of control [4] | kinase still bound, per cent of control [5] | kinase still bound, per cent of control [6] | kinase still bound, per cent of control [7] | kinase still bound, per cent of control [9] | kinase still bound, per cent of control [10] | kinase still bound, per cent of control [11] | kinase still bound, per cent of control [12] | kinase still bound, per cent of control [13] | kinase still bound, per cent of control [14] | kinase still bound, per cent of control [15] | kinase still bound, per cent of control [16] | kinase still bound, per cent of control [17] | kinase still bound, per cent of control [18] | kinase still bound, per cent of control [20] | kinase still bound, per cent of control [21] | kinase still bound, per cent of control [22] | further results
1 | Cc1cn(-c2cc(C(=O)Nc3ccc(C)c(NC(=O)c4ccno4)c3)cc(C(F)(F)F)c2)cn1 | 100% | 100% | 100% | 100% | 100% | 100% | 100% | 100% | 100% | 100% | 0.1% | 100% | 100% | 100% | 100% | 100% | 100% | 100% | 100% | 100% | kinase still bound, per cent of control [8]: 100%; kinase still bound, per cent of control [19]: 4%; kinase still bound, per cent of control [23]: 100%; kinase still bound, per cent of control [24]: 100%; kinase still bound, per cent of control [25]: 100%; kinase still bound, per cent of control [26]: 100%; kinase still bound, per cent of control [27]: 100%; kinase still bound, per cent of control [28]: 100%; kinase still bound, per cent of control [29]: 100%; kinase still bound, per cent of control [30]: 100%; kinase still bound, per cent of control [31]: 1.4%; kinase still bound, per cent of control [32]: 100%; kinase still bound, per cent of control [33]: 100%; kinase still bound, per cent of control [34]: 1.2%; kinase still bound, per cent of control [35]: 100%; kinase still bound, per cent of control [36]: 100%; kinase still bound, per cent of control [37]: 100%
2 | CCOc1cc(N2CCC(O)CC2)ccc1Nc1ncc2c(n1)N(C)c1ccccc1C(=O)N2C | 100% | 100% | 100% | 100% | 100% | 100% | 100% | 100% | 100% | 100% | 100% | 100% | 100% | 100% | 100% | 100% | 100% | 100% | 100% | 100% | kinase still bound, per cent of control [8]: 100%; kinase still bound, per cent of control [19]: 100%; kinase still bound, per cent of control [23]: 100%; kinase still bound, per cent of control [24]: 100%; kinase still bound, per cent of control [25]: 100%; kinase still bound, per cent of control [26]: 100%; kinase still bound, per cent of control [27]: 100%; kinase still bound, per cent of control [28]: 100%; kinase still bound, per cent of control [29]: 100%; kinase still bound, per cent of control [30]: 100%; kinase still bound, per cent of control [31]: 100%; kinase still bound, per cent of control [32]: 100%; kinase still bound, per cent of control [33]: 100%; kinase still bound, per cent of control [34]: 100%; kinase still bound, per cent of control [35]: 100%; kinase still bound, per cent of control [36]: 100%; kinase still bound, per cent of control [37]: 100%
3 | COc1cc2c(Nc3ccc(NC(=O)c4ccccc4)cc3)ncnc2cc1OCCCN1CCOCC1 | 82% | 39% | 9.6% | 66% | 100% | 72% | 42% | 62% | 100% | 76% | 36% | 100% | 100% | 33% | 100% | 49% | 100% | 100% | 80% | 26% | kinase still bound, per cent of control [38]: 47%; kinase still bound, per cent of control [23]: 100%; kinase still bound, per cent of control [24]: 46%; kinase still bound, per cent of control [25]: 100%; kinase still bound, per cent of control [26]: 100%; kinase still bound, per cent of control [27]: 64%; kinase still bound, per cent of control [39]: 94%; kinase still bound, per cent of control [28]: 95%; kinase still bound, per cent of control [29]: 100%; kinase still bound, per cent of control [30]: 64%; kinase still bound, per cent of control [31]: 2%; kinase still bound, per cent of control [32]: 85%; kinase still bound, per cent of control [33]: 100%; kinase still bound, per cent of control [34]: 2%; kinase still bound, per cent of control [35]: 100%; kinase still bound, per cent of control [40]: 81%; kinase still bound, per cent of control [36]: 100%; kinase still bound, per cent of control [37]: 100%

— the kinase profiling compilation of Christmann-Franck et al. (2016)
